Results taken from patent US20250257060A1, “OXADIAZOLE COMPOUND, PHARMACEUTICAL COMPOSITION COMPRISING SAME, AND USE THEREOF” (SUZHOU GENHOUSE BIO CO., LTD., priority 2022, published 2025).
Like-named read-outs stand apart in the source and are kept apart here. Blank lines part the entries; values can stand above or below the compound they belong to.

Legend:
[1] = biological target: HDAC6 (Homo sapiens (Human), UniProt Q9UBN7); test: HDAC6 enzymatic activity assay; type: biochemical
Description: The inhibitory activity of the compounds of the present application against HDAC6 was evaluated by an enzymatic activity assay. HDAC6 (Abcam), test compounds, and a 20 µM substrate solution (Ac-GAK(Ac)-AMC) were each added to a 384-well plate, and the plate was incubated at 37° C. for 30 min. […] and […] were added, and the plate was incubated at room temperature for 15 min. […] IC50 was obtained by fitting using GraphPadPrism 7.0 software.

[2] = Pharmacokinetic test in mice (IV and PO); type: in vivo, BALB/c mice; conditions: for Cmax / AUC(0-inf) / AUC(0-t) / MRT inf / Vd / Tmax: BALB/c, mouse, plasma; for MRT inf: read-out: MRT(0-∞); for Vd: read-out: Vz
Description: In this example, the pharmacokinetic behavior of the compounds after intravenous injection (IV) and intragastric (PO) administration in BALB/c mice was tested.
On the day of administration, mice were weighed for actual body weight and the administration volume was calculated. Each compound was tested in two groups with 3 mice in each group, one group administered by single intravenous injection and the other group of mice by single intragastric administration. Whole blood samples were collected via the orbit at prescribed time points (0.25 h, 0.5 h, 1 h, 2 h, 4 h, 8 h, and 24 h after administration). After blood sample collection, the samples were immediately transferred to labeled commercial sample tubes containing K2-EDTA (0.85-1.15 mg), followed by centrifugation (3200×g, 4° C., 10 min) and plasma collection. The plasma was transferred to a pre-cooled centrifuge tube, frozen in dry ice, and stored in an ultra-low temperature freezer at −60° C. or lower until the LC-MS/MS analysis.
Plasma concentrations were determined by a LC-MS/MS method. Plasma drug concentration data for compounds 1 and 2 were processed in a non-compartmental model using WinNonlin Version 6.3 (Pharsight, Mountain View, CA) pharmacokinetic software. The relevant pharmacokinetic parameters were calculated by a linear logarithmic trapezoid method.

[3] = Brain-to-blood drug concentration ratio of mice; type: in vivo; conditions: mouse, 5 mg/kg PO
Description: On the day of administration, mice were weighed for actual body weight and the administration volume was calculated. In each group of 9 mice, the compound was administered by single intravenous (IV) injection or intragastric (PO) administration. Whole blood samples were collected via the orbit at prescribed time points. After blood sample collection, the samples were immediately transferred to labeled commercial sample tubes containing K2-EDTA (0.85-1.15 mg), followed by centrifugation (3200×g, 4° C., 10 min) and plasma collection. The plasma was transferred to a pre-cooled centrifuge tube, frozen in dry ice, and stored in an ultra-low temperature freezer at −60° C. or lower until the LC-MS/MS analysis. 20 μL of a plasma sample or brain tissue homogenate was taken and 80 μL of an internal standard solution (50 ng/mL solution of propafenone in acetonitrile) was added. The plate was sealed with a film sealer at 165° C., shaken on a micro oscillator (maximum vibration speed) for 10 min, and centrifuged at 4000 rpm for 20 min using a low-speed benchtop centrifuge, 10 μL of supernatant was transferred and 90 μL of acetonitrile was added. The mixture was vortexed and mixed well, and then the plate was sealed with the film sealer at 165° C. After the mixture was vortexed and mixed well, 1 μL of supernatant was taken for LC-MS/MS analysis. Plasma drug concentration data for the compounds were processed in a non-compartmental model using WinNonlin Version 6.3 (Pharsight, Mountain View, CA) pharmacokinetic software. The relevant pharmacokinetic parameters were calculated by a linear logarithmic trapezoid method.
Data processing: brain-to-blood drug concentration ratio of mice at the same time point=drug concentration in brain tissue/drug concentration in plasma

[4] = brain, read-out: Brain drug concentration
[5] = plasma, read-out: Blood drug concentration

Chain of HDAC6 (Q9UBN7 whole entry): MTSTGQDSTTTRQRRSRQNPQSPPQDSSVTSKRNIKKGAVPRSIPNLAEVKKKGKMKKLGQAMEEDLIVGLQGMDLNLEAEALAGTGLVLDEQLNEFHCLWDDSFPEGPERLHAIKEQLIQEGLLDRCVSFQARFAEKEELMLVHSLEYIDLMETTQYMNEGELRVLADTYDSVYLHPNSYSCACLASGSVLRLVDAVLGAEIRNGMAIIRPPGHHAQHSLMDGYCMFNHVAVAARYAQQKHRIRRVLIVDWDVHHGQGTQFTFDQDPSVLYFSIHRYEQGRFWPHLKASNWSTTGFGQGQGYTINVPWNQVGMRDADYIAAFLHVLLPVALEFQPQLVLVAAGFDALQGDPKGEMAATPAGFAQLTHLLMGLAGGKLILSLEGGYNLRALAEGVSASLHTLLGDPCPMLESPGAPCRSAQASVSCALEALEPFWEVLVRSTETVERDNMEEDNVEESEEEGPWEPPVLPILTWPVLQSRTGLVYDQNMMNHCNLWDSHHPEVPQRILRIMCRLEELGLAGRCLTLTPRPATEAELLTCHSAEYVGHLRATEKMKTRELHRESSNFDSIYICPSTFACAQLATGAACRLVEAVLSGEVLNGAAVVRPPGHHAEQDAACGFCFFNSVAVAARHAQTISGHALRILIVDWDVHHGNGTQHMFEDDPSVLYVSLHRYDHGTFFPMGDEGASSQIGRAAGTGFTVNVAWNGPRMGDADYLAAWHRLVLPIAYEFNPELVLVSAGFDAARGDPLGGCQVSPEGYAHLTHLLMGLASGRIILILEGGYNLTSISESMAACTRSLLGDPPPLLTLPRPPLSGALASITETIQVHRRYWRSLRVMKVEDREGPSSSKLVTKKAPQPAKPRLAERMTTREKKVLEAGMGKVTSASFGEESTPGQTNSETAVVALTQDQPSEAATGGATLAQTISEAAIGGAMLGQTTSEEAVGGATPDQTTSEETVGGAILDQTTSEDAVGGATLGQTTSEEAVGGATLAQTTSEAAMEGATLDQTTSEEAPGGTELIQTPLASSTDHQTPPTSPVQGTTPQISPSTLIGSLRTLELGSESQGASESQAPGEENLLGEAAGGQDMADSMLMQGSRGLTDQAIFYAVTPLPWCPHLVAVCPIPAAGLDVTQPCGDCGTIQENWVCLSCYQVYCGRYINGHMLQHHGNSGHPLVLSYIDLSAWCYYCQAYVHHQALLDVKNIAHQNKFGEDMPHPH

IC50 [1]: 137 nM
Compound: O=S1(=O)c2cc(-c3nnc(C(F)F)o3)ccc2CN1C(c1ccccn1)[C@H](O)c1ccccn1 (stereo partly drawn) [Compound 70i-A]

IC50 [1]: 113 nM
Compound: O=S1(=O)c2cc(-c3nnc(C(F)F)o3)ccc2CN1[C@@H](c1ccccn1)[C@H](O)c1ccc(F)cn1 (single isomer, unassigned) [Compound 84j-B]

IC50 [1]: 118 nM
Compound: Cn1cc([C@H]([C@@H](O)c2ccccc2)N2Cc3ccc(-c4nnc(C(F)F)o4)cc3S2(=O)=O)cn1 (single isomer, unassigned) [Compound 79i-A]

IC50 [1]: 23.1 nM
Compound: O=S1(=O)c2cc(-c3nnc(C(F)F)o3)ccc2CN1[C@@H](c1ccccn1)[C@H](O)c1ccc(F)cn1 (single isomer, unassigned) [Compound 84j-A-B]

IC50 [1]: 399 nM
Compound: Cn1cc(-c2ccccc2N2Cc3ccc(-c4nnc(C(F)F)o4)cc3S2(=O)=O)cn1 [Compound 72]

Cmax ([2]; po, 5 mg/kg, read-out: C0/Cmax): 5.75 µM
AUC(0-inf) ([2]; mice, IV 1 mg/kg): 1.77 µM·h
AUC(0-t) ([2]; mice, IV 1 mg/kg): 1.62 µM·h
Cmax ([2]; mice, IV 1 mg/kg (C0)): 1.89 µM
MRT inf ([2]; mice, IV 1 mg/kg): 0.8 h
Vd ([2]; mice, IV 1 mg/kg): 0.9 L/kg
AUC(0-inf) ([2]; mice, PO 5 mg/kg): 15.5 µM·h
AUC(0-t) ([2]; mice, PO 5 mg/kg): 15.1 µM·h
Tmax ([2]; mice, PO 5 mg/kg): 1 h
MRT inf ([2]; mice, PO 5 mg/kg): 2.3 h
CLz ([2]; mice, IV 1 mg/kg): 18.3 mL/min/kg
t½z ([2]; mice, IV 1 mg/kg): 0.6 h
F ([2]; mice, PO 5 mg/kg): 175.8%
t½z ([2]; mice, PO 5 mg/kg): 1.5 h
concentration at 2 h [3, 4]: 298 ng/mL
Kp at 2 h ([3]; brain/plasma): 0.28
concentration at 2 h [3, 5]: 1060 ng/mL
Compound: O=S1(=O)c2cc(-c3nnc(C(F)F)o3)ccc2CN1[C@H](c1ccccn1)[C@H](O)c1ccc(F)cn1 [Compound 87]

Cmax ([2]; po, 5 mg/kg, read-out: C0/Cmax): 7.17 µM
AUC(0-inf) ([2]; mice, IV 1 mg/kg): 5.28 µM·h
AUC(0-t) ([2]; mice, IV 1 mg/kg): 5.05 µM·h
Cmax ([2]; mice, IV 1 mg/kg (C0)): 1.91 µM
MRT inf ([2]; mice, IV 1 mg/kg): 2.6 h
Vd ([2]; mice, IV 1 mg/kg): 1 L/kg
AUC(0-inf) ([2]; mice, PO 5 mg/kg): 34 µM·h
AUC(0-t) ([2]; mice, PO 5 mg/kg): 25.5 µM·h
Tmax ([2]; mice, PO 5 mg/kg): 1 h
MRT inf ([2]; mice, PO 5 mg/kg): 5.6 h
CLz ([2]; mice, IV 1 mg/kg): 6.7 mL/min/kg
t½z ([2]; mice, IV 1 mg/kg): 1.8 h
F ([2]; mice, PO 5 mg/kg): 101.2%
t½z ([2]; mice, PO 5 mg/kg): 4.2 h
concentration at 2 h [3, 4]: 160 ng/mL
concentration at 8 h ([3]; brain, 8 h, read-out: Brain drug concentration): 72 ng/mL
Kp at 2 h ([3]; brain/plasma): 0.08
Kp at 8 h ([3]; brain/plasma, 8 h): 0.1
concentration at 2 h [3, 5]: 1910 ng/mL
concentration at 8 h ([3]; plasma, 8 h, read-out: Blood drug concentration): 695 ng/mL
Compound: Cn1cc([C@@H]([C@H](O)c2ccccc2)N2Cc3ccc(-c4nnc(C(F)F)o4)cc3S2(=O)=O)cn1 [Compound 80]

The next lines start with the compound.

Compound: O=S1(=O)c2cc(-c3nnc(C(F)F)o3)ccc2CN1[C@@H](c1ncccn1)[C@H](O)c1ncccn1 [Compound 103j-A]
IC50 [1]: 285 nM

Compound: O=S1(=O)c2cc(-c3nnc(C(F)F)o3)ccc2CN1[C@@H](c1cnccn1)[C@H](O)c1cnccn1 (single isomer, unassigned) [Compound 99j-B]
IC50 [1]: 138 nM

Compound: O=S1(=O)c2cc(-c3nnc(C(F)F)o3)ccc2CN1[C@H](c1ncccn1)[C@H](O)c1ncccn1 [Compound 103j-D]
IC50 [1]: 231 nM

Compound: CC(F)(F)C(=O)N[C@@H]1CCCC[C@H]1N1Cc2c(F)cc(-c3nnc(C(F)F)o3)cc2S1(=O)=O [Compound 39]
IC50 [1]: 261 nM

Compound: O=C(NC1CC1)N[C@@H]1CCCC[C@H]1N1Cc2ccc(-c3nnc(C(F)F)o3)cc2S1(=O)=O [Compound 109]
IC50 [1]: 89.8 nM

Compound: O=S1(=O)c2cc(-c3nnc(C(F)F)o3)ccc2CN1[C@@H](c1ccc(F)cn1)[C@H](O)c1ccc(F)cn1 (single isomer, unassigned) [Compound 88j-B]
IC50 [1]: 668 nM

Compound: O=S1(=O)c2cc(-c3nnc(C(F)F)o3)ccc2CN1[C@@H](c1ccc(F)cn1)[C@H](O)c1ccc(F)cn1 (single isomer, unassigned) [Compound 88j-A-A]
IC50 [1]: 584 nM

Compound: O=C(NCC1CC1)N[C@@H]1CCCC[C@H]1N1Cc2ccc(-c3nnc(C(F)F)o3)cc2S1(=O)=O [Compound 110]
IC50 [1]: 325 nM

Compound: O=S1(=O)c2cc(-c3nnc(C(F)F)o3)ccc2CN1[C@@H]1CCCC[C@H]1O [Compound 21]
IC50 [1]: 742 nM

Compound: O=S1(=O)c2cc(-c3nnc(C(F)F)o3)ccc2CN1c1ccccc1-c1ccccn1 [Compound 117]
IC50 [1]: 449 nM

Compound: O=S1(=O)c2cc(-c3nnc(C(F)F)o3)ccc2CN1[C@@H](c1ncccn1)[C@@H](O)c1ncccn1 [Compound 103j-C]
IC50 [1]: 226 nM

Compound: O=C(N[C@@H]1CCCC[C@H]1N1Cc2ccc(-c3nnc(C(F)F)o3)cc2S1(=O)=O)C(F)(F)F [Compound 55]
IC50 [1]: 48.4 nM
